For 31 compounds, IC50 results are on record in patent publication US20240336629A1, “Tricyclic Derivatives Useful As PARP7 Inhibitors” (JACOBIO PHARMACEUTICALS CO., LTD., priority 2021, published 2024).

As usually defined, the IC50 is the point on the concentration scale where inhibition reaches its midpoint.

For assay [1], the system named is lung cancer cell line H1373 (high expression of PARP7). As to the kind of experiment: Lung cancer cell proliferation inhibition experiment (CTG method). Conditions: H1373 cells, 144 hrs incubation, Cell Titer Glo. The assay is classed as cell-based. On the technique in general: ATP-based viability assays read luminescence as a measure of living cells.
A further assay concerns the target PARP7 enzyme (Homo sapiens (Human), UniProt Q7Z3E1). Description: PARP7 enzymatic experiment (HTRF assay). In kind it is biochemical. Conditions: 4PL fit. A general note: TR-FRET usually uses a lanthanide donor and a delayed reading to cut background.

Chain of PARP7 enzyme (Q7Z3E1 456-657): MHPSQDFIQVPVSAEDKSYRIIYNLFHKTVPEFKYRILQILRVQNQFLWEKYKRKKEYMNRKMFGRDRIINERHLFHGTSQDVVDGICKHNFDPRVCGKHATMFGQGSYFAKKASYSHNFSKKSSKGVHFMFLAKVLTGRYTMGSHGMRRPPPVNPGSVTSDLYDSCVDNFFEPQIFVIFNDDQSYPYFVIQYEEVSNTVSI

Take `CC(C)N1C(=O)[C@@H]2CN(C(=O)CCOC[C@H](C)Nc3cn[nH]c(=O)c3C(F)(F)F)CCN2c2ncc(C(F)(F)F)cc21` (single isomer, unassigned) [Compound 83A]: the IC50 came to 0.143 µM in assay [1] (Homo sapiens, NCI-H1373, 144 h) and 0.00379 µM on PARP7 enzyme.

For `CC(C)N1C(=O)[C@H]2CN(C(=O)CCOC[C@H](C)Nc3cn[nH]c(=O)c3C(F)(F)F)CCN2c2ncc(C(F)(F)F)cc21` (single isomer, unassigned) [Compound 83B], the 50% inhibitory concentration (IC50) in assay [1] (Homo sapiens, NCI-H1373, 144 h) is 0.468 µM; against PARP7 enzyme, 0.00364 µM.

As to `C[C@@H]1C[C@@H]2CN(C(=O)CCOC[C@@H]3CCN3c3cn[nH]c(=O)c3C(F)(F)F)CCN2c2ncc(C(F)(F)F)cc21` (single isomer, unassigned) [Compound 94A], the IC50 is 0.00851 µM in assay [1] and 0.00237 µM at PARP7 enzyme.

Turning to `C[C@@H]1C[C@H]2CN(C(=O)CCOC[C@@H]3CCN3c3cn[nH]c(=O)c3C(F)(F)F)CCN2c2ncc(C(F)(F)F)cc21` (single isomer, unassigned) [Compound 94B], the IC50 in assay [1] came out at 0.0133 µM; at PARP7 enzyme it was 0.00294 µM.

On to `C[C@H]1C[C@@H]2CN(C(=O)CCOC[C@@H]3CCN3c3cn[nH]c(=O)c3C(F)(F)F)CCN2c2ncc(C(F)(F)F)cc21` (single isomer, unassigned) [Compound 94C], for which the results for the IC50 (in assay [1]; on PARP7 enzyme) were 0.00703 µM and 0.0021 µM, respectively.

For the compound `C[C@H]1C[C@H]2CN(C(=O)CCOC[C@@H]3CCN3c3cn[nH]c(=O)c3C(F)(F)F)CCN2c2ncc(C(F)(F)F)cc21` (single isomer, unassigned) [Compound 94D], the IC50 in assay [1] amounted to 0.0158 µM; against PARP7 enzyme, 0.00355 µM.

On to `COc1ccc(Cn2ncc(N3CC(C)(C)[C@H]3COCCC(=O)N3CCN4c5ncc(C(F)(F)F)cc5N(C)C(=O)[C@@H]4C3)c(C(F)(F)F)c2=O)cc1` (single isomer, unassigned) [Compound 95A], for which the figures for the IC50 (in assay [1]; against PARP7 enzyme) were 0.0399 µM and 0.00357 µM, respectively.

`COc1ccc(Cn2ncc(N3CC(C)(C)[C@H]3COCCC(=O)N3CCN4c5ncc(C(F)(F)F)cc5N(C)C(=O)[C@H]4C3)c(C(F)(F)F)c2=O)cc1` (single isomer, unassigned) [Compound 95B]: the figures for the IC50 (in assay [1]; against PARP7 enzyme) were 0.0485 µM and 0.00588 µM, respectively.

On to `CN1C(=O)[C@@H]2CN(C(=O)CCOC[C@@H]3CCCN3c3cn[nH]c(=O)c3C(F)(F)F)CCN2c2ncc(C(F)(F)F)cc21` (single isomer, unassigned) [Compound 98A], for which the IC50 in assay [1] is 0.0555 µM; against PARP7 enzyme it was 0.00125 µM.

As to `CN1C(=O)[C@H]2CN(C(=O)CCOC[C@@H]3CCCN3c3cn[nH]c(=O)c3C(F)(F)F)CCN2c2ncc(C(F)(F)F)cc21` (single isomer, unassigned) [Compound 98B], the results for the IC50 (in assay [1]; against PARP7 enzyme) were 0.0371 µM and 0.00136 µM, respectively.

In the case of `CC(=O)c1c(N[C@@H](C)COCCC(=O)N2CCN3c4ncc(C(F)(F)F)cc4N(C)C(=O)[C@@H]3C2)cn[nH]c1=O` [Compound 13A], the 50% inhibitory concentration (IC50) in assay [1] (Homo sapiens, NCI-H1373, 144 h) is 0.0357 µM; against PARP7 enzyme it was 0.00136 µM.

On to `CC(=O)c1c(N[C@@H](C)COCCC(=O)N2CCN3c4ncc(C(F)(F)F)cc4N(C)C(=O)[C@H]3C2)cn[nH]c1=O` [Compound 13B], for which the IC50 in assay [1] (Homo sapiens, NCI-H1373, 144 h) turned out to be 0.0522 µM; against PARP7 enzyme it was 0.00173 µM.

Consider `CC[C@@H](COCCC(=O)N1CCN2c3ncc(C(F)(F)F)cc3N(C)C(=O)[C@@H]2C1)Nc1cn[nH]c(=O)c1C(F)(F)F` [Compound 15A], for which the IC50 was 0.0824 µM in assay [1] (Homo sapiens, NCI-H1373, 144 h) and 0.00193 µM against PARP7 enzyme.

With `CC[C@@H](COCCC(=O)N1CCN2c3ncc(C(F)(F)F)cc3N(C)C(=O)[C@H]2C1)Nc1cn[nH]c(=O)c1C(F)(F)F` [Compound 15B], the IC50 in assay [1] (Homo sapiens, NCI-H1373, 144 h) was 0.187 µM; against PARP7 enzyme it was 0.00286 µM.

As to `C[C@@H](COCCC(=O)N1CCN2c3ncc(F)cc3N(C)C(=O)[C@H]2C1)Nc1cn[nH]c(=O)c1C(F)(F)F` [Compound 19B], the IC50 was 0.221 µM in assay [1] (Homo sapiens, NCI-H1373, 144 h) and 0.00275 µM against PARP7 enzyme.

In the case of `C[C@@H](COCCC(=O)N1CCN2c3ncc(Br)cc3N(C)C(=O)[C@@H]2C1)Nc1cn[nH]c(=O)c1C(F)(F)F` [Compound 21A], the IC50 in assay [1] (Homo sapiens, NCI-H1373, 144 h) stood at 0.0809 µM; on PARP7 enzyme, 0.000424 µM.

Regarding `C[C@@H](COCCC(=O)N1CCN2c3ncc(Br)cc3N(C)C(=O)[C@H]2C1)Nc1cn[nH]c(=O)c1C(F)(F)F` [Compound 21B], the IC50 stood at 0.0436 µM in assay [1] (Homo sapiens, NCI-H1373, 144 h) and 0.000812 µM against PARP7 enzyme.

For the compound `CCN1C(=O)[C@@H]2CN(C(=O)CCOC[C@H](C)Nc3cn[nH]c(=O)c3C(F)(F)F)CCN2c2ncc(Cl)cc21` [Compound 22A], the half-inhibitory concentration (IC50) in assay [1] (Homo sapiens, NCI-H1373, 144 h) is 0.139 µM; against PARP7 enzyme, 0.000846 µM.

For `CCN1C(=O)[C@H]2CN(C(=O)CCOC[C@H](C)Nc3cn[nH]c(=O)c3C(F)(F)F)CCN2c2ncc(Cl)cc21` [Compound 22B], the IC50 in assay [1] (Homo sapiens, NCI-H1373, 144 h) amounted to 0.0641 µM; against PARP7 enzyme it was 0.000969 µM.

In the case of `CCN1C(=O)[C@H]2CN(C(=O)CCOC[C@H](C)Nc3cn[nH]c(=O)c3C(F)(F)F)CCN2c2ncc(Br)cc21` [Compound 23B], the IC50 is 0.0461 µM in assay [1] (Homo sapiens, NCI-H1373, 144 h) and 0.000863 µM on PARP7 enzyme.

As to `COC[C@@H](COCCC(=O)N1CCN2c3ncc(C(F)(F)F)cc3N(C(C)C)C(=O)[C@@H]2C1)Nc1cn[nH]c(=O)c1C(F)(F)F` [Compound 25A], the 50% inhibitory concentration (IC50) in assay [1] (Homo sapiens, NCI-H1373, 144 h) is 0.0381 µM; at PARP7 enzyme it was 0.00372 µM.

Regarding `COC[C@@H](COCCC(=O)N1CCN2c3ncc(C(F)(F)F)cc3N(C(C)C)C(=O)[C@H]2C1)Nc1cn[nH]c(=O)c1C(F)(F)F` [Compound 25B], the IC50 worked out at 0.0534 µM in assay [1] (Homo sapiens, NCI-H1373, 144 h) and 0.00536 µM on PARP7 enzyme.

As for `CC(=O)c1c(N[C@@H](C)COCCC(=O)N2CCN3c4ncc(C(F)(F)F)cc4N(C4CC4)C(=O)C3C2)cn[nH]c1=O` (some centres unmarked) [Compound 27], the IC50 in assay [1] (Homo sapiens, NCI-H1373, 144 h) amounted to 0.441 µM; against PARP7 enzyme, 0.00698 µM.

As to `C[C@@H](COCCC(=O)N1CCN2c3ncc(F)cc3N(C3CC3)C(=O)[C@@H]2C1)Nc1cn[nH]c(=O)c1C(F)(F)F` [Compound 28A], the results for the IC50 (in assay [1]; against PARP7 enzyme) were 0.275 µM and 0.00753 µM, respectively.

On to `C[C@@H](COCCC(=O)N1CCN2c3ncc(F)cc3N(C3CC3)C(=O)[C@@H]2C1)Nc1cn[nH]c(=O)c1C(F)(F)F` [Compound 28B], for which the IC50 in assay [1] was determined as 0.761 µM; against PARP7 enzyme, 0.00787 µM.

Turning to `C[C@@H](COC[C@@H](O)C(=O)N1CCN2c3ncc(Cl)cc3OCCC2C1)Nc1cn[nH]c(=O)c1C(F)(F)F` (some centres unmarked) [Compound 64A], the half-inhibitory concentration (IC50) came out at 0.208 µM in assay [1] (Homo sapiens, NCI-H1373, 144 h) and 0.0015 µM against PARP7 enzyme.

For the compound `CC(=O)c1c(N[C@@H](C)COCCC(=O)N2CCN3c4ncc(C(F)(F)F)cc4OCC3C2)cn[nH]c1=O` (some centres unmarked) [Compound 69], the results for the IC50 (in assay [1]; at PARP7 enzyme) were 0.483 µM and 0.00392 µM, respectively.

Regarding `C[C@@H](COCCC(=O)N1CCN2c3ncc(Cl)cc3SCC[C@@H]2C1)Nc1cn[nH]c(=O)c1C(F)(F)F` [Compound 73A], the IC50 was 0.0223 µM in assay [1] (Homo sapiens, NCI-H1373, 144 h) and 0.000769 µM against PARP7 enzyme.

For the compound `C[C@@H](COCCC(=O)N1CCN2c3ncc(C(F)(F)F)cc3[C@@](C)(O)[C@@H]2C1)Nc1cn[nH]c(=O)c1C(F)(F)F` [Compound 79A], the IC50 in assay [1] (Homo sapiens, NCI-H1373, 144 h) was 0.572 µM; at PARP7 enzyme, 0.00725 µM.

Regarding `C[C@@H](COCCC(=O)N1CCN2c3ncc(C(F)(F)F)cc3[C@](C)(O)[C@@H]2C1)Nc1cn[nH]c(=O)c1C(F)(F)F` [Compound 79B], the IC50 in assay [1] (Homo sapiens, NCI-H1373, 144 h) came to 0.341 µM; against PARP7 enzyme, 0.00467 µM.

Take `C[C@@H](COCCC(=O)N1CCN2c3ncc(C(F)(F)F)cc3[C@@](C)(O)[C@H]2C1)Nc1cn[nH]c(=O)c1C(F)(F)F` [Compound 79C]: the IC50 in assay [1] (Homo sapiens, NCI-H1373, 144 h) was determined as 0.456 µM; at PARP7 enzyme, 0.00477 µM.
